Earlier results in US20080004440A1, “SCAR TREATMENT USING PROTEIN PHOSPHATASE INHIBITORS” (priority 2006, published 2008).
Counter-ions that a name gives are not always drawn. Like-named read-outs stand apart in the source and are kept apart here. *1 amine or outer side, *2 acyl side, *3 side chain or, on linkers, in order; H or OH if unused. Where a SMILES comes first, the peptide text is derived from it. Bridges are numbered along the chain shown (N, C = ends). [ ]: non-standard residue; d: D form. Adda = CO[C@@H](Cc1ccccc1)[C@@H](C)/C=C(C)/C=C/[C@H](N[*:1])[C@H](C)C(=O)[*:2]; dAsp(3S-Me) = C[C@H](C(=O)[*:3])[C@@H](N[*:1])C(=O)[*:2]; d(γGlu) = O=C(O)[C@@H](CCC(=O)[*:2])N[*:1]; NMeDha = C=C(NC)C(=O)O

Assays:
PP2A, PP1, PP2B = settings: cited from earlier work
PP2A = settings: cited from earlier work
PP1 = settings: cited from earlier work
[1] = cited from earlier work
PP2B = settings: cited from earlier work

| Molecule | Order of inhibition / selectivity among protein phosphatases (PP2A, PP1, PP2B) | IC50 (PP2A) [nM] | IC50 (PP1) [nM] | further results |
| --- | --- | --- | --- | --- |
| Microcystin-RR | Cyclic peptide. PP2A ˜ PP1 >> PP2B (IC50 = 1.4 nM | 1.4 |  |  |
| O=P(O)(O)Oc1cccc2ccccc12 [α-Naphthyl acid Phosphate] |  |  |  | Order of inhibition / selectivity among protein phosphatases (PP2A, PP1, PP2B; in words): Broad-spectrum protein phosphatase inhibitor. |
| C[C@@](O)(/C=C/[C@H]1CC=CC(=O)O1)[C@@H](C[C@@H](O)\C=C/C=C\C=C\CO)OP(=O)(O)O [Fostriecin] |  | 3.2 |  | IC50 (PP1; inhibits PP1 only at higher concentrations): 131000 nM |
| O=C(O)[C@@H]1[C@H](C(=O)O)[C@H]2CC[C@@H]1O2 [Endothall] |  | 90 |  | Order of inhibition / selectivity among protein phosphatases (PP2A, PP1, PP2B; in words): specific inhibitor of PP2A |
| COC[C@@H]([C@H](O)[C@H](O)C(=O)NCC[C@H](C)c1nc(/C=C/C[C@@H]2O[C@]3(C[C@@H](O)[C@@H]2C)O[C@H]([C@H](C[C@H](O)[C@H](C)[C@H](O)[C@H](C)/C=C(C)/C(C)=C/C=C/C(C)=C\C#N)OC)[C@H](OP(=O)(O)O)C3(C)C)co1)N(C)C [Calyculin A] | Cell-permeable. Phosphorylated polyketide. PP2A ˜ PP1 >> PP2B | 0.5 to 1 | 2 | Cell permeability ([1]; in words): Cell-permeable. Phosphorylated polyketide. PP2A ˜ PP1 >> PP2B |
| Protein phosphatase 2A inhibitor I1^PP2A: Protein phosphatase 2A inhibitor; potently inhibits all forms of PP2A |  |  |  | Ki (PP2A; all forms of PP2A): ~0.1 nM |
| C=C1C(=O)N[C@H](C)C(=O)N[C@@H](CC(C)C)C(=O)N[C@@H](C(=O)O)[C@H](C)C(=O)N[C@@H](CCCNC(=N)N)C(=O)N[C@@H](/C=C/C(C)=C/[C@H](C)[C@H](Cc2ccccc2)OC)[C@H](C)C(=O)N[C@@H](C(=O)O)CCC(=O)N1C [Microcystin-LR] (R[Adda][d(γGlu)][NMeDha][dA]L[dAsp(3S-Me)]-OH; lactam N-7) | Cyclic peptide. PP2A ˜ PP1 >> PP2B (IC50 for PP2A = 40 pM | 0.04 | 1.7 |  |
| C=C1[C@@H](O)[C@@H]2O[C@]3(CC[C@H](/C=C/[C@@H](C)[C@@H]4CC(C)=C[C@@]5(O[C@H](C[C@@](C)(O)C(=O)O)CC[C@H]5O)O4)O3)CC[C@H]2O[C@@H]1[C@@H](O)C[C@H](C)[C@H]1O[C@@]2(CCCCO2)CC[C@H]1C [Okadaic acid, ammonium salt] |  | 0.1 | 10 to 15 | IC50 (PP2B): 5000 nM |
| Microcystin-LW |  |  |  | Cell permeability [1]: A more cell-permeable analog of Microcystin-LR |
